Data reported in ChEMBL document CHEMBL5260795, “Antifungal potential of marine natural products” (Eur J Med Chem, 2017).
≈ marks a conversion by molar mass, not a printed value. Values belong to the compound of their own block, whether it stands above or below them.

What was measured:
Lindra thalassiae = assay: Antifungal activity against Lindra thalassiae; type: functional, organism-based; conditions: Lindriella thalassiae
Paradendryphiella salina = assay: Antifungal activity against Dendry-phiella salina; type: functional, organism-based
Candida albicans [1] = assay: Antifungal activity against wild type Candida albicans; type: functional, organism-based
Candida albicans [2] = assay: Antifungal activity against amphotericin-B-resistant Candida albicans; type: functional, organism-based
Nannizzia gypsea [3] = assay: Antifungal activity against Microsporum gypseum; type: functional
Trichophyton rubrum = assay: Antifungal activity against Trichophyton rubrum; type: functional
Candida albicans [4] = assay: Antimicrobial activity against Candida albicans assessed as inhibition of fungal growth; type: functional
Kluyveromyces marxianus [5] = assay: Antifungal activity against Candida pseudotropicalis; type: functional
Candida albicans [6] = assay: Antifungal activity against Candida albicans ATCC76615 by atomatic microplate reader analysis; type: functional
Kluyveromyces marxianus [7] = assay: Antifungal activity against clinical strain Candida pseudotropicalis by atomatic microplate reader analysis; type: functional
Nannizzia gypsea [8] = assay: Antifungal activity against Microsporum gypseum ATCC31388 by atomatic microplate reader analysis; type: functional
Candida parapsilosis = assay: Antifungal activity against clinical strain Candida parapsilosis by atomatic microplate reader analysis; type: functional; conditions: Lodderomyces parapsilosis
Cladosporium cucumerinum = assay: Antifungal activity against Cladosporium cucumerinum assessed as zone of inhibition; type: functional

Compound: CO[C@H]1C[C@H](CC[C@H](C)[C@H](O)[C@H](C)[C@H]2OC(=O)/C=C/C(C)=C/[C@@H](O)[C@H](OC)C[C@@H]3C=CC[C@@H](C[C@@H](OC)[C@@]4(CO4)[C@@H](OC)C[C@@H](OC)[C@@H]2C)O3)O[C@@H](C)C1
IC50 (Lindra thalassiae): 0.135 µg/mL (≈ 0.176 µM)
IC50 (Paradendryphiella salina): 0.034 µg/mL (≈ 0.0443 µM)
IC50 (Candida albicans [1]): 1.3 µg/mL (≈ 1.69 µM)
IC50 (Candida albicans [2]): 0.5 µg/mL (≈ 0.652 µM)

MIC (Nannizzia gypsea [3]): 1 µg/mL
MIC (Trichophyton rubrum): 1 µg/mL
MIC (Candida albicans [4]): 1 µg/mL
MIC (Kluyveromyces marxianus [5]): 1 µg/mL
Compound: C=C(C)CCC[C@]1(C)OC(=O)[C@]23[C@@H](O)C=C4[C@@H](CC[C@H]5C(C)(C)[C@@H](O[C@@H]6OC[C@@H](OS(=O)(=O)[O-])[C@H](O)[C@H]6O[C@@H]6O[C@H](C)[C@@H](O[C@@H]7O[C@H](CO)[C@@H](O)[C@H](O[C@@H]8O[C@H](CO)[C@@H](O)[C@H](OC)[C@H]8O)[C@H]7O)[C@H](O)[C@H]6O)CC[C@]45C)[C@]2(C)CC[C@@]31O.[Na+]

MIC (Candida albicans [6]): 3.4 µg/mL (≈ 2.75 µM)
MIC (Kluyveromyces marxianus [7]): 3.4 µg/mL (≈ 2.75 µM)
MIC (Nannizzia gypsea [8]): 3.4 µg/mL (≈ 2.75 µM)
MIC (Candida parapsilosis): 3.4 µg/mL (≈ 2.75 µM)
Compound: CO[C@@H]1[C@@H](O)[C@H](O[C@@H]2[C@H](O)[C@H](O[C@H]3[C@H](O)[C@@H](O)[C@H](O[C@H]4[C@H](OC5CC[C@]6(C)C7=C(CC[C@H]6C5(C)C)[C@]5(C)CC[C@H]6[C@]5(CC7)C(=O)O[C@@]6(C)C[C@H](O)CC(C)C)OC[C@@H](O[C@@H]5O[C@H](CO)[C@@H](O)[C@H](O)[C@H]5O)[C@@H]4O)O[C@@H]3CO)OC[C@H]2O)O[C@H](CO)[C@H]1O (stereo partly drawn)

Compound: CO[C@@H]1[C@@H](O)[C@H](O[C@@H]2[C@@H](O)[C@H](O[C@H]3[C@H](O)[C@@H](O)[C@H](O[C@H]4[C@H](O[C@H]5CC[C@]6(C)C7C[C@H](O)[C@]89C(=O)O[C@@](C)(CCCC(C)C)[C@@]8(O)CC[C@@]9(C)C7=CC[C@H]6C5(C)C)OC[C@@H](OS(=O)(=O)[O-])[C@@H]4O)O[C@@H]3C)O[C@H](COS(=O)(=O)[O-])[C@H]2O)O[C@H](CO)[C@H]1O.[Na+].[Na+] (stereo partly drawn)
inhibition zone (IZ) (Cladosporium cucumerinum): 8 mm
